Experimental data from patent US20050148034A1, “Methods for identification of modulators of angiogenesis, compounds discovered thereby, and methods of treatment using the compounds” (priority 2002, published 2005).
Like-named read-outs stand apart in the source and are kept apart here.

Experiments:
[1] = test system: human umbilical cord blood vessel rings; settings: 10^−5 M, compared with the DMSO (0.5%) diluent control; cited from earlier work
[2] = test system: embryonic-like stem cells derived from placenta; assay: Marker expression of cultured embryonic-like stem cells (staining score, Table 2); type: cell-based, human; parameters: key to SMC-specific Myosin HC / GFAP / CD34+ / CD45+: −: no staining; +/−: <20% staining; +: 20-50% staining; ++: 50-75% staining; +++: >75% staining; settings: for CD34+ / CD45+ / GFAP / Nestin / SMC-specific Myosin HC: placental conditioned media, fourteen days of culture; for numbers of cells expressing CD34, CD45 and smooth muscle cell (SMC)-specific myosin heavy chain / numbers of cells expressing nestin and glial fibrillary acidic protein (GFAP): summary of Table 2
Experimental: The following experiments evaluated the effects of Thalomid™, Actimid™ and Revimid™ on the morphological differentiation of embryonic-like stem cells derived from placenta. The morphological differentiation of cultured embryonic-like stem cells was evaluated after fourteen days of culture in the presence of placental conditioned medium and with DMSO (control), EGCF, Thalomid™, Actimid™ or Revimid™.
Embryonic-like stem cells were isolated from placenta as described above in Section 5.4. The embryonic-like stem cells were cultured using the culture conditions described above.
(§1) The cells were scored for the expression of CD34 (a marker of early hematopoietic progenitor cells; also an endothelial cell marker), CD45 (a marker of all hematopoietic cells except erythrocytes), CD105 (a marker of proliferating endothelial cells), smooth muscle cell (SMC)-specific myosin heavy chain, nestin ([…]), and glial fibrillary acidic protein (GFAP). Ratios of CD34 cells/TNC (Total Number of Cells), CD45 cells/TNC and CD105 cells/TNC were also determined.
In Table 2, the scoring was as follows: • −: no staining; +/−: <20% staining+: 20-50% staining; ++: 50-75% staining; +++: >75% staining.

[3] = test system: embryonic-like stem cells derived from placenta; assay: Immunostaining for CD34, CD45 and CD105 in cultured placental stem cells (ratios to TNC, Table 3); type: cell-based, human; settings: for CD34/TNC / CD45/TNC / CD105/TNC: placental conditioned media, 1 μg/ml, 14 days in culture; for numbers of cells expressing CD34, CD45 and CD 105: summary of Table 3
Experimental: as §1
In another experiment, the results of which are summarized in Table 3, embryonic-like stem cells derived from placenta were cultured, using the conditions described in the umbilical vessel ring assay described above, in the presence of placenta-conditioned medium with DMSO (negative control), Thalomid™, Actimid™ or Revimid™. After 14 days in culture, the cells were then immunostained for expression of CD34+, CD45+ and CD 105+.

[4] = test system: embryonic-like stem cells derived from placenta; assay: Total vessel area/field and branching/bifurcation of cultured placental embryonic-like stem cells (Table 4); type: cell-based, human; parameters: key to Branching/Bifurcation (+/−): +: a branch or bifurcation was observed; −: no branch or bifurcation was observed; settings: for branching and/or bifurcation exhibited by the cells / total vessel area/field covered by the cells: summary of Table 4
Experimental: In another experiment, the results of which are summarized in Table 4, embryonic-like stem cells derived from placenta were cultured, using the culture conditions described above, and in the presence of EGCF, DMSO, Thalomid™, Actimid™ or Revimid™.
A “+” means that a branch or bifurcation was observed and a “−” means that no branch or bifurcation was observed. […] See also FIGS. 3A, 3B

[5] = test system: human umbilical cord blood vessel rings; assay: Umbilical cord blood vessel ring angiogenesis assay (validation with known modulators); type: cell-based
Experimental: Blood vessels, approximately 1-2 mm in diameter and 1-2 cm in length, were excised from human umbilical cord within 12 hours of birth. Both arterial and venous tissue were harvested and maintained separately. The vessels were placed in DMEM containing 2.5 μg/ml of fungizone and cut into 1-2 mm length fragments using fine dissecting forceps and iridectomy scissors. Vessel fragments were freed of residual clots and soaked in DMEM before use. Dissecting and sectioning of vessels were performed with the aid of a surgical microscope. Similar angiogenic responses were obtained from blood vessels of venular and arterial origin but for each assay, vessel fragments from only one vessel were used. See FIG. 6 for a graphic depiction of the assay setu.
Assays were performed in petri dishes (10 to 25 cm^2) or 6-well culture plates (Costar, Cambridge, Mass.), which were prepared by pre-coating with either 0.1% gelatin (Sigma, St. Louis, Mo.) or MATRIGEL® (BD Biosciences) to form a matrix. Following the coating of the plates, 50 μl of human cord blood plasma in 5 mL of DMEM were added to each dish/well to form a surface film over the matrix. The film was allowed to set at 37° C. for 90 minutes, after which it was removed, leaving a thin film in each dish/well. Vessel ring segments were then positioned at central locations within the plate or dish. Petri dishes were divided into quarters, and vessel ring segments were placed in the center of each of the quadrants. In the case of 6-well culture plates, a vessel ring segment was placed in each of the wells. Vessel ring segments generally adhered to the coated matrix within 12 hours, allowing for the addition of media without risk of detachment due to buoyancy. […]
Test compounds were administered at the beginning of culture, once the adherent stem cells were selected, or once the vessel rings are determined to have adhered to the matrix. Each test compound is evaluated at various concentrations to enable generation of a dose response analysis. […]
Vessel outgrowth was scored as a quantitative comparison to the positive and negative controls, using the following notations: − negative; +/− minimally above negative control; + low level of outgrowth; ++ moderate level of outgrowth; +++ high level of outgrowth; ++++ positive control level of outgrowth. Vessel outgrowth was also scored morphometrically as the maximal distance of vessel sprout growth in microns from the vessel ring, and as the total area of endothelial cell coverage (ECA)/area of vessel ring (VRA).
Following culture for 14-21 days, as described above, angiogenesis was quantified and compared with control cultures. […]

[6] = test system: rat aortic rings; assay: Rat aortic angiogenesis assay; type: cell-based, Sprague Dawley rats; settings: for mean microvessel growth (% of control): without microsomes
Experimental: Twelve well tissue culture grade plates were covered with 250 μl of Matrigel and allowed to gel for 30-45 min at 370 C, 5% Co2. Thoracic aortas were excised from eight to ten week old male Sprague Dawley rats and the fibroadipose tissue was removed. The aortas were sectioned into 1 mm long sections, rinsed eight times with EGM-2 (Clonetics Corp), placed on the Matrigel coated wells, covered with additional 250 μl Matrigel, and allowed to gel for 30-45 min at 370 C. The rings were cultured for 24 hours in 2 ml of EGM-2. After 24 hours, recombinant murine endostatin was reconstituted in EBM and added as a single treatment on day 1. Thalidomide was added at different concentrations (1 μg/ml, 5 μg/ml, 10 μg/ml, 50 μg/ml and 100 μg/ml) in the presence or absence of rabbit microsomes as noted in the Table 5. Aortic rings were photographed on days.

[7] = test system: human umbilical cord vessel rings; assay: Human angiogenesis assay (umbilical artery vessel rings in Matrigel); type: cell-based; settings: for Microvessel Growth (% Inhibition): vs 0.1% DMSO, three weeks, average of two rings
Text: Fresh human umbilical cords were collected by trained medical personnel under fill donor informed consent from local hospitals. The cords were transported and treated within three hours. Umbilical cords and vessel lumens were rinsed with chilled basal nutrient medium. The artery was removed from the cord using mechanical means, forceps and small surgical scissors in an aseptic field. The vessel was cleaned of connective tissue and vessel rings were cut cross-wise in a length of 1 mm. The rings were placed into EGM-2 medium (Clonetics Corp.) in a 50 ml conical bottom tube and stored at 4° C. Six-well tissue culture plates were covered with […] of Matrigel and allowed to gel for 30-45 min at 37° C., under 5% CO2. The vessel rings were rinsed in EGM-2 medium and placed on the Matrigel-coated wells, covered with additional 250 μl Matrigel, and allowed to gel for 30-45 min at 37° C. (see FIG. 6). The vessels were cultured for 24 hours in 4 ml of EGM-2 to allow the tissue to adapt to its new environment. After 24 hours incubation, the rings were treated either with 0.1% DMSO as control, or different concentrations of compounds (thalidomide or CC4047). Culture medium was changed twice per week for total of three weeks.
The effects of compounds on cultured vessel rings were compared with the effect of DMSO on vessel rings. The results were analyzed using Image-Pro® Plus software (MediaCybernetics, Inc. Carlsbad, Calif.).
These experiments were done in duplicates and the results are the average of two rings in same experiment. A different concentration of Fumagillin is used as positive control in this experiment.

For C[C@]12CCC(=O)C=C1CC[C@@H]1[C@@H]2[C@@H](O)C[C@@]2(C)[C@H]1CC[C@]2(O)C(=O)CO [hydrocortisone], the inhibition of angiogenesis [1] is listed as “partially inhibited angiogenesis”.
For Nc1cccc2c1CN(C1CCC(=O)NC1=O)C2=O (centres unmarked) [Revimid, 3-(4-amino-1-oxo-1,3-dihydro-isoindol-2-yl)-piperidine-2,6-dione], the “CD34+” value ([2]; 1 μg/mL) was “−”, the “CD45+” value ([2]; 1 μg/mL) was “−” and the GFAP ([2]; 1 μg/mL) was “+ (20-50% staining)”. The Nestin ([2]; 1 μg/mL) was “+ (20-50% staining)”, the “SMC-specific Myosin HC” value ([2]; 1 μg/mL) was “−” and the “CD34+” value ([2]; 10 μg/mL) was “−”. For the same molecule, the “CD45+” value ([2]; 10 μg/mL) was “−”, the GFAP ([2]; 10 μg/mL) was “+++ (>75% staining)” and the Nestin ([2]; 10 μg/mL) was “++ (50-75% staining)”. The “SMC-specific Myosin HC” value ([2]; 10 μg/mL) was “−”, the “numbers of cells expressing CD34, CD45 and smooth muscle cell (SMC)-specific myosin heavy chain” value [2] was “decreased” and the “numbers of cells expressing nestin and glial fibrillary acidic protein (GFAP)” value [2] was “increased”. For the same molecule, the CD34/TNC [3] was “.22”, the CD45/TNC [3] was 1.71 and the CD105/TNC [3] was 17.3. The “numbers of cells expressing CD34, CD45 and CD 105” value [3] was “decrease”, the “Branching/Bifurcation (+/−)” value ([4]; 1 μg/ml) was “−” and the “Total Vessel Area/Field (% Coverage)” value ([4]; 1 μg/ml) was 13.5 +/− 7.7 % Coverage. For the same molecule, the “Branching/Bifurcation (+/−)” value ([4]; 10 μg/ml) was “−”, the “Total Vessel Area/Field (% Coverage)” value ([4]; 10 μg/ml) was 12.1 +/− 7.4 % Coverage and the “branching and/or bifurcation exhibited by the cells” value [4] was “decreases the branching and/or bifurcation exhibited by the cells”. For the same molecule, the “total vessel area/field covered by the cells” value [4] was “decrease in the total vessel area/field covered by the cells”.
With low molecular weight heparin the inhibition of angiogenesis ([5]; 100 μg/ml) was “small but significant inhibition of angiogenesis”.
For Nc1cccc2c1C(=O)N(C1CCC(=O)NC1=O)C2=O (centres unmarked) [Actimid, 4-(Amino)-2-(2,6-dioxo(3-piperidyl))-isoindoline-1,3-dione], the “CD34+” value ([2]; 1 μg/mL) was “−”, the “CD45+” value ([2]; 1 μg/mL) was “−” and the GFAP ([2]; 1 μg/mL) was “−”. The Nestin ([2]; 1 μg/mL) was “++ (50-75% staining)”, the “SMC-specific Myosin HC” value ([2]; 1 μg/mL) was “−” and the “CD34+” value ([2]; 10 μg/mL) was “−”. For the same molecule, the “CD45+” value ([2]; 10 μg/mL) was “−”, the GFAP ([2]; 10 μg/mL) was “+ (20-50% staining)” and the Nestin ([2]; 10 μg/mL) was “+++ (>75% staining)”. For the same molecule, the “SMC-specific Myosin HC” value ([2]; 10 μg/mL) was “−”, the “numbers of cells expressing CD34, CD45 and smooth muscle cell (SMC)-specific myosin heavy chain” value [2] was “decreased” and the “numbers of cells expressing nestin and glial fibrillary acidic protein (GFAP)” value [2] was “increased”. The CD34/TNC [3] was 0.04, the CD45/TNC [3] was 0.94 and the CD105/TNC [3] was 26.3. The “numbers of cells expressing CD34, CD45 and CD 105” value [3] was “decrease”, the “Branching/Bifurcation (+/−)” value ([4]; 1 μg/ml) was “−” and the “Total Vessel Area/Field (% Coverage)” value ([4]; 1 μg/ml) was 11.3 +/− 2.8 % Coverage. The “Branching/Bifurcation (+/−)” value ([4]; 10 μg/ml) was “−”, the “Total Vessel Area/Field (% Coverage)” value ([4]; 10 μg/ml) was 6.7 +/− 4.1 % Coverage and the “branching and/or bifurcation exhibited by the cells” value [4] was “decreases the branching and/or bifurcation exhibited by the cells”. The “total vessel area/field covered by the cells” value [4] was “decrease in the total vessel area/field covered by the cells”, the “mean microvessel growth (% of control)” value ([6]; 10 μg/ml) was 14.2 % of control and the “mean microvessel growth (% of control)” value ([6]; 100 μg/ml) was 0.00 % of control. For the same molecule, the “need of rabbit microsomes for inhibition of vessel formation” value ([6]; summary of Table 5) was “did not require microsomes for inhibition of vessel formation”, the “Microvessel Growth (% Inhibition)” value ([7]; 0..1 μM) was 50.1 % Inhibition and the “Microvessel Growth (% Inhibition)” value ([7]; 1 μM) was 85 % Inhibition. For the same molecule, the “Microvessel Growth (% Inhibition)” value ([7]; 10 μM) was 100 % Inhibition and the “formation of microvessel outgrowth” value ([7]; compared with DMSO treated samples) was “inhibited the formation of microvessel outgrowth in a dose dependent manner”.
In the case of heparin, the inhibition of angiogenesis ([5]; 100 μg/ml) is reported as “small but significant inhibition of angiogenesis”.
With Cc1ccc(C(=O)Nc2ccc(S(=O)(=O)O)c3cc(S(=O)(=O)O)cc(S(=O)(=O)O)c23)cc1NC(=O)c1cccc(NC(=O)Nc2cccc(C(=O)Nc3cc(C(=O)Nc4ccc(S(=O)(=O)O)c5cc(S(=O)(=O)O)cc(S(=O)(=O)O)c45)ccc3C)c2)c1 [suramin] the inhibition of angiogenesis ([5]; 10 μg/ml) was “the inhibitory activity of this compound is lost” and the inhibition of angiogenesis ([5]; 100 μg/ml) was “virtually totally inhibited angiogenesis”.
